# According to patent publication US8410161B2, “Thioxanthone ring system derivatives” (National Defense Medical Center, priority 2010, dated 2013):
# Columns and labels:
# CCRF-CEM = test: NCI in vitro DTP human cell line screen, CCRF-CEM; format: cell-based; conditions: Leukemia, 1.00E−5 Molar
# Description: (§1) Then, a cell toxicity assay of the cancer lines made by National Cancer Institute will be discussed as follows. The cell toxicity assay is performed by choosing ten compounds (existing certification numbers) from the 59 compounds disclosed in the present invention first.
# HL-60(TB) = test: NCI in vitro DTP human cell line screen, HL-60(TB); format: cell-based; conditions: Leukemia, 1.00E−5 Molar
# Description: as §1
# K562 = test: NCI in vitro DTP human cell line screen, K562; format: cell-based; conditions: Leukemia, 1.00E−5 Molar
# Description: as §1
# MOLT-4 = test: NCI in vitro DTP human cell line screen, MOLT-4; format: cell-based; conditions: Leukemia, 1.00E−5 Molar
# Description: as §1
# SR = test: NCI in vitro DTP human cell line screen, SR; format: cell-based; conditions: Leukemia, 1.00E−5 Molar
# Description: as §1
# EKVX = test: NCI in vitro DTP human cell line screen, EKVX; format: cell-based; conditions: Non-Small Cell Lung Cancer, 1.00E−5 Molar
# Description: as §1
# HOP-62 = test: NCI in vitro DTP human cell line screen, HOP-62; format: cell-based; conditions: Non-Small Cell Lung Cancer, 1.00E−5 Molar
# Description: as §1
# HOP-92 = test: NCI in vitro DTP human cell line screen, HOP-92; format: cell-based; conditions: Non-Small Cell Lung Cancer, 1.00E−5 Molar
# Description: as §1
# NCI-H226 = test: NCI in vitro DTP human cell line screen, NCI-H226; format: cell-based; conditions: Non-Small Cell Lung Cancer, 1.00E−5 Molar
# Description: as §1
# NCI-H23 = test: NCI in vitro DTP human cell line screen, NCI-H23; format: cell-based; conditions: Non-Small Cell Lung Cancer, 1.00E−5 Molar
# Description: as §1
# NCI-H322M = test: NCI in vitro DTP human cell line screen, NCI-H322M; format: cell-based; conditions: Non-Small Cell Lung Cancer, 1.00E−5 Molar
# Description: as §1
# NCI-H460 = test: NCI in vitro DTP human cell line screen, NCI-H460; format: cell-based; conditions: Non-Small Cell Lung Cancer, 1.00E−5 Molar
# Description: as §1
# NCI-H522 = test: NCI in vitro DTP human cell line screen, NCI-H522; format: cell-based; conditions: Non-Small Cell Lung Cancer, 1.00E−5 Molar
# Description: as §1
# HCC-2998 = test: NCI in vitro DTP human cell line screen, HCC-2998; format: cell-based; conditions: Colon Cancer, 1.00E−5 Molar
# Description: as §1
# HCT-116 = test: NCI in vitro DTP human cell line screen, HCT-116; format: cell-based; conditions: Colon Cancer, 1.00E−5 Molar
# Description: as §1
# HCT-15 = test: NCI in vitro DTP human cell line screen, HCT-15; format: cell-based; conditions: Colon Cancer, 1.00E−5 Molar
# Description: as §1
# HT29 = test: NCI in vitro DTP human cell line screen, HT29; format: cell-based; conditions: Colon Cancer, 1.00E−5 Molar
# Description: as §1
# KM12 = test: NCI in vitro DTP human cell line screen, KM12; format: cell-based; conditions: Colon Cancer, 1.00E−5 Molar
# Description: as §1
# SW-620 = test: NCI in vitro DTP human cell line screen, SW-620; format: cell-based; conditions: Colon Cancer, 1.00E−5 Molar
# Description: as §1
# SF-268 = test: NCI in vitro DTP human cell line screen, SF-268; format: cell-based; conditions: CNS Cancer, 1.00E−5 Molar
# Description: as §1
# SF-295 = test: NCI in vitro DTP human cell line screen, SF-295; format: cell-based; conditions: CNS Cancer, 1.00E−5 Molar
# Description: as §1
# SF-539 = test: NCI in vitro DTP human cell line screen, SF-539; format: cell-based; conditions: CNS Cancer, 1.00E−5 Molar
# Description: as §1
# SNB-19 = test: NCI in vitro DTP human cell line screen, SNB-19; format: cell-based; conditions: CNS Cancer, 1.00E−5 Molar
# Description: as §1
# SNB-75 = test: NCI in vitro DTP human cell line screen, SNB-75; format: cell-based; conditions: CNS Cancer, 1.00E−5 Molar
# Description: as §1
# U251 = test: NCI in vitro DTP human cell line screen, U251; format: cell-based; conditions: CNS Cancer, 1.00E−5 Molar
# Description: as §1
# LOX IMVI = test: NCI in vitro DTP human cell line screen, LOX IMVI; format: cell-based; conditions: Melanoma, 1.00E−5 Molar
# Description: as §1
# MALME-3M = test: NCI in vitro DTP human cell line screen, MALME-3M; format: cell-based; conditions: Melanoma, 1.00E−5 Molar
# Description: as §1
# M14 = test: NCI in vitro DTP human cell line screen, M14; format: cell-based; conditions: Melanoma, 1.00E−5 Molar
# Description: as §1
# MDA-MB-435 = test: NCI in vitro DTP human cell line screen, MDA-MB-435; format: cell-based; conditions: Melanoma, 1.00E−5 Molar
# Description: as §1
# SK-MEL-2 = test: NCI in vitro DTP human cell line screen, SK-MEL-2; format: cell-based; conditions: Melanoma, 1.00E−5 Molar
# Description: as §1
# SK-MEL-28 = test: NCI in vitro DTP human cell line screen, SK-MEL-28; format: cell-based; conditions: Melanoma, 1.00E−5 Molar
# Description: as §1
# SK-MEL-5 = test: NCI in vitro DTP human cell line screen, SK-MEL-5; format: cell-based; conditions: Melanoma, 1.00E−5 Molar
# Description: as §1
# UACC-257 = test: NCI in vitro DTP human cell line screen, UACC-257; format: cell-based; conditions: Melanoma, 1.00E−5 Molar
# Description: as §1
# IGROV1 = test: NCI in vitro DTP human cell line screen, IGROV1; format: cell-based; conditions: Ovarian Cancer, 1.00E−5 Molar
# Description: as §1
# OVCAR-4 = test: NCI in vitro DTP human cell line screen, OVCAR-4; format: cell-based; conditions: Ovarian Cancer, 1.00E−5 Molar
# Description: as §1
# OVCAR-5 = test: NCI in vitro DTP human cell line screen, OVCAR-5; format: cell-based; conditions: Ovarian Cancer, 1.00E−5 Molar
# Description: as §1
# OVCAR-8 = test: NCI in vitro DTP human cell line screen, OVCAR-8; format: cell-based; conditions: Ovarian Cancer, 1.00E−5 Molar
# Description: as §1
# NCI/ADR-RES = test: NCI in vitro DTP human cell line screen, NCI/ADR-RES; format: cell-based; conditions: Ovarian Cancer, 1.00E−5 Molar
# Description: as §1
# SK-OV-3 = test: NCI in vitro DTP human cell line screen, SK-OV-3; format: cell-based; conditions: Ovarian Cancer, 1.00E−5 Molar
# Description: as §1
# ACHN = test: NCI in vitro DTP human cell line screen, ACHN; format: cell-based; conditions: Renal Cancer, 1.00E−5 Molar
# Description: as §1
# CAKI-1 = test: NCI in vitro DTP human cell line screen, CAKI-1; format: cell-based; conditions: Renal Cancer, 1.00E−5 Molar
# Description: as §1
# RXF 393 = test: NCI in vitro DTP human cell line screen, RXF 393; format: cell-based; conditions: Renal Cancer, 1.00E−5 Molar
# Description: as §1
# TK-10 = test: NCI in vitro DTP human cell line screen, TK-10; format: cell-based; conditions: Renal Cancer, 1.00E−5 Molar
# Description: as §1
# UO-31 = test: NCI in vitro DTP human cell line screen, UO-31; format: cell-based; conditions: Renal Cancer, 1.00E−5 Molar
# Description: as §1
# PC-3 = test: NCI in vitro DTP human cell line screen, PC-3; format: cell-based; conditions: Prostate Cancer, 1.00E−5 Molar
# Description: as §1
# DU145 = test: NCI in vitro DTP human cell line screen, DU145; format: cell-based; conditions: Prostate Cancer, 1.00E−5 Molar
# Description: as §1
# MCF7 = test: NCI in vitro DTP human cell line screen, MCF7; format: cell-based; conditions: Breast Cancer, 1.00E−5 Molar
# Description: as §1
# HS 578-T = test: NCI in vitro DTP human cell line screen, HS 578-T; format: cell-based; conditions: Breast Cancer, 1.00E−5 Molar
# Description: as §1
# BT-549 = test: NCI in vitro DTP human cell line screen, BT-549; format: cell-based; conditions: Breast Cancer, 1.00E−5 Molar
# Description: as §1
# T-47D = test: NCI in vitro DTP human cell line screen, T-47D; format: cell-based; conditions: Breast Cancer, 1.00E−5 Molar
# Description: as §1
# MDA-MB-468 = test: NCI in vitro DTP human cell line screen, MDA-MB-468; format: cell-based; conditions: Breast Cancer, 1.00E−5 Molar
# Description: as §1
# 60 cancer lines = test: NCI cell toxicity assay of 60 cancer lines, whole panel summary; format: cell-based, human; conditions: 1.00E−5 Molar
# Description: as §1
structure (smiles),measurement,setting,value
"O=c1c2ccccc2sc2c(Cl)c(SCc3ccccc3)ccc12 [No. 23, 3-(Benzylthio)-4-chloro-9H-thioxanthen-9-one]",Growth Percent,CCRF-CEM,59.07%
same,Growth Percent,HL-60(TB),115.59%
same,Growth Percent,K562,86.95%
same,Growth Percent,MOLT-4,98.34%
same,Growth Percent,SR,36.57%
same,Growth Percent,EKVX,93.46%
same,Growth Percent,HOP-62,94.64%
same,Growth Percent,HOP-92,74.60%
same,Growth Percent,NCI-H226,90.97%
same,Growth Percent,NCI-H23,97.59%
same,Growth Percent,NCI-H322M,70.18%
same,Growth Percent,NCI-H460,29.14%
same,Growth Percent,NCI-H522,95.48%
same,Growth Percent,HCC-2998,101.78%
same,Growth Percent,HCT-116,41.74%
same,Growth Percent,HCT-15,82.20%
same,Growth Percent,HT29,60.70%
same,Growth Percent,KM12,104.90%
same,Growth Percent,SW-620,69.53%
same,Growth Percent,SF-268,100.29%
same,Growth Percent,SF-295,63.22%
same,Growth Percent,SF-539,102.89%
same,Growth Percent,SNB-19,83.57%
same,Growth Percent,SNB-75,75.12%
same,Growth Percent,U251,38.89%
same,Growth Percent,LOX IMVI,62.94%
same,Growth Percent,MALME-3M,93.38%
same,Growth Percent,M14,102.67%
same,Growth Percent,MDA-MB-435,91.01%
same,Growth Percent,SK-MEL-2,116.81%
same,Growth Percent,SK-MEL-28,119.10%
same,Growth Percent,SK-MEL-5,99.73%
same,Growth Percent,UACC-257,109.84%
same,Growth Percent,IGROV1,56.63%
same,Growth Percent,OVCAR-4,15.10%
same,Growth Percent,OVCAR-5,94.34%
same,Growth Percent,OVCAR-8,82.11%
same,Growth Percent,NCI/ADR-RES,90.62%
same,Growth Percent,SK-OV-3,94.39%
same,Growth Percent,ACHN,26.15%
same,Growth Percent,CAKI-1,54.75%
same,Growth Percent,RXF 393,106.84%
same,Growth Percent,TK-10,95.49%
same,Growth Percent,UO-31,66.76%
same,Growth Percent,PC-3,83.92%
same,Growth Percent,DU145,107.70%
same,Growth Percent,MCF7,89.62%
same,Growth Percent,HS 578-T,91.28%
same,Growth Percent,BT-549,84.98%
same,Growth Percent,T-47D,82.55%
same,Growth Percent,MDA-MB-468,73.81%
same,"Growth Percent, Mean",60 cancer lines; mean over all cell lines,81.22%
same,cancer types with the better inhibition effect (in words),60 cancer lines; summary of Table 3,"better inhibition effect on Leukemia, non-small cell lung cancer, colorectal cancer, central nervous system cancer, ovarian cancer and kidney cancer"
